Laboratory results as given in US12180198B2, “Ribocil C antibiotics effective for Gram-negative pathogens” (THE BOARD OF TRUSTEES OF THE UNIVERSITY OF ILLINOIS, priority 2018, dated 2024).
Converted amounts (≈) assume the structure as drawn. Structures can show the parent of a compound that is named as a salt. Where two headings read alike, the source gives them in different places.

Columns and labels:
[1] = target: E. coli FabI (Escherichia coli, UniProt P0AEK4); test: In vitro FabI inhibition assay; format: biochemical; conditions: 20 nM enzyme
Chain of E. coli FabI (P0AEK4 whole entry): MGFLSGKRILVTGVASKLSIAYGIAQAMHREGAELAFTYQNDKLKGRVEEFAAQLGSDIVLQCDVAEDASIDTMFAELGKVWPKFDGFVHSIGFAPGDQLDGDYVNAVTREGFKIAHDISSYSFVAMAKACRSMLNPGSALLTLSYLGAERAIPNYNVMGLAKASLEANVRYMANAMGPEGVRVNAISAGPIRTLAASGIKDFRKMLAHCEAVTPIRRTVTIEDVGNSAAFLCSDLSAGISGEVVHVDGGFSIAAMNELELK
Procedure: Expression and purification of E. coli FabI. E. coli BL21 (DE3) pLysS (Novagen) were transformed with pET15-ecFabI. Overnight culture (10 mL) in LB supplemented with 50 μg/mL ampicillin from single colony was diluted into 1 L LB+50 μg/mL ampicillin. Cells were grown at 37° C., 250 rpm until OD600 reached 0.8. Culture was cooled to 18° C. and induced with 0.5 mM IPTG for 18 h at 18° C. Cells were harvested by centrifugation (5,000×g, 10 min, 4° C.). Cell pellets were flash frozen and store at −20° C. pending purification. Frozen cell pellets were thawed on ice and resuspended (5 mL per gram wet pellet, typically 20-30 mL) with 0.5% CHAPS, 1 mM PMSF, 1 μg/mL leupeptin, 1 μg/mL pepstatin A, and 2 μg/mL aprotinin in binding buffer [20 mM Tris (pH 7.9), 500 mM NaCl, 5 mM imidazole]. Cells were lysed by sonication on ice (30%, 10 s pulse, 20 s rest, 5 min total). Lysate was clarified by centrifugation (35,000×g, 1 h, 4° C.) and filtration through 0.2 μm syringe filter. Lysate was incubated with 5 mL Co-NTA agarose (HisPur cobalt resin, Thermo-Fisher Scientific Cat #89965, pre-equilibrated with binding buffer) for 30 min at 4° C. with gentle rocking. Agarose-containing lysate was transferred to column and flow through discarded. Column was washed with 2 column volumes of binding buffer followed by 10 column volumes of wash buffer [20 mM Tris (pH 7.9), 500 mM NaCl, 60 mM imidazole]. Protein was eluted with 15 mL elution buffer [20 mM Tris (pH 7.9), 500 mM NaCl, 300 mM imidazole]. […] Protein concentration was determined by BCA assay (ThermoFisher Cat #23227).
In vitro FabI inhibition assay. […] Plate was placed in plate-reader (SpectraMax 190, Molecular Devices) under temperature control (25° C.), and temperature was allowed to equilibrate. […] After shaking for 5 s, reaction progress was monitored by absorbance at 340 nm every 15 s for 90 min. Linear portion of reaction progress curve was fit using plate-reader software (SoftMax Pro 7.0). Percent activity was calculated relative to DMSO-only and no-enzyme controls in each plate. […]

[2] = tested on: E. coli F20987; test: MIC, micro-dilution broth method; format: cell-based; conditions: Escherichia coli
How it was run: (§1)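 MICs were determined by CLSI broth micro-dilution in cation-adjusted Mueller-Hinton broth, with all testing done in biological triplicate. Values are reported in […].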

[3] = tested on: K. pneumoniae BAA-2472; test: MIC, micro-dilution broth method; format: cell-based; conditions: Klebsiella pneumoniae, BAA2472
How it was run: as §1

[4] = tested on: E. coli AR-0495; test: MIC, micro-dilution broth method; format: cell-based; conditions: Escherichia coli, AR0495
How it was run: as §1

[5] = tested on: E. coli AR-0349; test: MIC, micro-dilution broth method; format: cell-based; conditions: Escherichia coli, AR0349
How it was run: as §1

[6] = tested on: P. aeruginosa PA01; test: MIC, micro-dilution broth method; format: cell-based; conditions: Pseudomonas aeruginosa
How it was run: as §1

[7] = tested on: K. pneumoniae S20595; test: MIC, micro-dilution broth method; format: cell-based; conditions: Klebsiella pneumoniae
How it was run: as §1

[8] = tested on: K. pneumoniae S47889; test: MIC, micro-dilution broth method; format: cell-based; conditions: Klebsiella pneumoniae
How it was run: as §1

[9] = tested on: A. baumannii F19521; test: MIC, micro-dilution broth method; format: cell-based; conditions: Acinetobacter baumannii
How it was run: as §1

[10] = tested on: K. pneumoniae M67198; test: MIC, micro-dilution broth method; format: cell-based; conditions: Klebsiella pneumoniae
How it was run: as §1

[11] = tested on: E. coli M66623; test: MIC, micro-dilution broth method; format: cell-based; conditions: Escherichia coli
How it was run: as §1

[12] = tested on: K. pneumoniae M67297; test: MIC, micro-dilution broth method; format: cell-based; conditions: Klebsiella pneumoniae
How it was run: as §1

[13] = Mouse MTD
Procedure: The protocol was approved by the IACUC at the University of Illinois at Urbana-Champaign (Protocol Number: 16144). In these studies, 10- to 12-week-old female C57BL/6 mice purchased from Charles River were used. The maximum tolerate dose (MTD) of a single compound was determined first. […] For multiple doses, the compound was given by daily IP for 5 consecutive days and mice were monitored for signs of toxicity for 1 month. MTD was the highest dosage with acceptable toxicity (e.g., <20% weight loss). Single dose MTDs were initially determined.

[14] = tested on: strains harboring FabI G148S; test: MIC against resistant mutants; format: cell-based, E. coli; conditions: Escherichia coli, FABIG148S
Procedure: Antimicrobial susceptibility tests. Susceptibility testing was performed in biological triplicate, using the micro-dilution broth method as outlined by the Clinical and Laboratory Standards Institute. Bacteria were cultured with cation-adjusted Muller-Hinton broth (Sigma-Aldrich, Cat #90922) in round-bottom 96-well plates (Corning, Cat #3788). Human serum (pooled gender, 0.2 μm filtered) was purchased from BioIVT (Hicksville, NY).
Selection of resistant mutants. Resistant mutants were selected via the large inoculum method.

Compound: Cc1c(CN(C)C(=O)/C=C/c2cnc3c(c2)CCC(=O)N3)oc2ccccc12 [Debio-1452, (E)-N-methyl-N-((3-methylbenzofuran-2-yl)methyl)-3-(7-oxo-5,6,7,8-tetrahydro-1,8-naphthyridin-3-yl)acrylamide, reference compound]
- inhibition of E. coli FabI in vitro (in words) [1]: potent FabI inhibitors
- MIC ([2]; E. coli F20987, read-out: MIC): > 32 µg/mL
- MIC ([3]; K. pneumoniae BAA-2472, read-out: MIC): > 32 µg/mL
- MIC ([4]; E. coli AR-0495, read-out: MIC): 8 µg/mL (≈ 21.3 µM)
- MIC ([5]; E. coli AR-0349, read-out: MIC): 4 µg/mL (≈ 10.7 µM)
- MIC ([6]; P. aeruginosa PA01, read-out: MIC): > 32 µg/mL
- MIC ([7]; K. pneumoniae S20595, read-out: MIC): > 32 µg/mL
- MIC ([8]; K. pneumoniae S47889, read-out: MIC): > 32 µg/mL
- MIC ([9]; A. baumannii F19521, read-out: MIC): > 32 µg/mL
- MIC ([10]; K. pneumoniae M67198, read-out: MIC): > 32 µg/mL
- MIC ([11]; E. coli M66623, read-out: MIC): > 32 µg/mL
- MIC ([12]; K. pneumoniae M67297, read-out: MIC): > 32 µg/mL

Compound: Cc1c(CN(C)C(=O)/C=C/c2cnc3c(c2)CC(N)C(=O)N3)oc2ccccc12 (stereo not shown) [Debio-1452-NH3, (E)-3-(6-amino-7-oxo-5,6,7,8-tetrahydro-1,8-naphthyridin-3-yl)-N-methyl-N-((3-methylbenzofuran-2-yl)methyl)acrylamide hydrochloride]
- dose well tolerated in mice ([13]; female, C57BL/6, mouse, in vivo, ip, 5 days): 50 mg/kg
- single dose well tolerated ([13]; mice, IP injection, single dose, monitored 2 weeks): 50 mg/kg
- daily dosing well tolerated ([13]; mice, IP, daily for 5 consecutive days): 50 mg/kg
- MIC [14]: > 64 µg/mL
- inhibition of E. coli FabI in vitro (in words) [1]: potent FabI inhibitors
- MIC ([2]; F20987): 4 µg/mL
- MIC [3]: 16 µg/mL
- MIC [4]: 4 µg/mL
- MIC [5]: 2 µg/mL
- MIC ([6]; PA01): > 64 µg/mL
- MIC ([7]; S20595): 16 µg/mL
- MIC ([8]; S47889): 8 µg/mL
- MIC ([9]; F19521): 4 µg/mL
- MIC ([10]; M67198): 32 µg/mL
- MIC ([11]; M66623): 8 µg/mL
- MIC ([12]; M67297): 32 µg/mL
